Source: patent US10000488B2, “Heterocyclic compound” (TAKEDA PHARMACEUTICAL COMPANY LIMITED, priority 2014, dated 2018)

What was measured:
RORγt [1] = target: T1, RORγt (Homo sapiens, UniProt P51449); assay: RORγt binding test using fluorescent-labeled synthetic ligand (TR-FRET); conditions: test compound 1 μM; read-out: binding inhibitory rate (%) of fluorescent-labeled synthetic ligand to RORγt at test compound 1 μM
T1 sequence (P51449 1-497 isoform P51449-2): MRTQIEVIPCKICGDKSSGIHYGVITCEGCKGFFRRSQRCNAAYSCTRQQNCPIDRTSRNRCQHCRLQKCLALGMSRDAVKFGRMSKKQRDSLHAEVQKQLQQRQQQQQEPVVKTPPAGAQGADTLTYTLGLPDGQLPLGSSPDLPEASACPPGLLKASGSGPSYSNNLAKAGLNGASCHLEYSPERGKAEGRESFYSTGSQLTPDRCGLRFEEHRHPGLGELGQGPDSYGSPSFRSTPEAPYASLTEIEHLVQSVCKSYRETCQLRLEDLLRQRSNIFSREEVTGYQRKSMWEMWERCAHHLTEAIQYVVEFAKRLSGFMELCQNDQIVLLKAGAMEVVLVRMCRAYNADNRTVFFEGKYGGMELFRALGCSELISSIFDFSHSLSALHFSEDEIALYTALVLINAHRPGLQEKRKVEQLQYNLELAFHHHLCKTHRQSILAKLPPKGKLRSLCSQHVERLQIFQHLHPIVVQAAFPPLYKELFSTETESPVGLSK
How it was run: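 Compound displacement of a fluorescent-labeled synthetic ligand from His-tagged RORγt was read by TR-FRET with a terbium anti-His antibody. Buffer was 20 mM Tris-HCl pH 7.5, 100 mM NaCl, 1 mM DTT and 0.1% BSA, with stocks of 240 nM protein, 12 μM ligand and 8 nM antibody (pre-mix, not final). Incubations were 20 min plus 20 min at room temperature, with excitation at 320 nm, emission at 520 nm and a 100 μs delay.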

RORγt [2] = target: T1, RORγt; assay: Cofactor recruitment test (Alpha Screen, biotinylated SRC-1 peptide); type: biochemical; conditions: read-out: signal value inhibitory rate (%) at test compound 1 μM
Protocol: Cofactor Recruitment Test
Cofactor recruitment test was performed by Alpha Screen (Histidine Detection Kit, PerkinElmer) method. First, a test compound was diluted with an assay buffer (50 mM Tris-HCl (pH 7.5), 50 mM KCl, 1 mM DTT, 0.1% BSA) and added to a 384 well plate by 5 μL. […] The mixture was stood in a dark place for 1 hr, and the signal value was measured by Envision (PerkinElmer).

RORγt [3] = target: T1, RORγt; assay: Jurkat reporter test (human IL-17 ROR response element luciferase reporter, RORγt vector); type: cell-based; conditions: test compound 3 μM; Jurkat cells; read-out: luminescence level inhibitory rate (%) at test compound 3 μM
How it was run: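 Jurkat cells were electroporated (1350 V, 10 ms, 3 pulses) with the reporter constructs and plated in RPMI with 10% lipid-reduced FCS, 10 mM HEPES pH 7.5 and 5 μM lovastatin. After overnight culture with compound, luciferase activity was measured by luminescence following a 10 min room-temperature incubation with Bright-Glo.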

inhibition at 1 µM (RORγt [1]) [%]	inhibition at 1 µM (RORγt [2]) [%]	inhibition at 3 µM (RORγt [3]) [%]	SMILES
102	110	103	Cc1cc(C(=O)N[C@@H]2CCCN(C(=O)Nc3ccc4c(c3)c(=O)n(CC3CC3)c(=O)n4C(C)C)C2)ccc1C#N [Example 249, (3R)-3-((4-cyano-3-methylbenzoyl)amino)-N-(3-(cyclopropylmethyl)-1-isopropyl-2,4-dioxo-1,2,3,4-tetrahydroquinazolin-6-yl)piperidine-1-carboxamide]
101	107	108	COC(=O)N1Cc2ccc(C(=O)N[C@@H]3CCCN(C(=O)Nc4cc5c(=O)n(CC6CC6)c(=O)n(C(C)C)c5cc4F)C3)cc2C1 [Example 343, methyl 5-(((3R)-1-((3-(cyclopropylmethyl)-7-fluoro-1-isopropyl-2,4-dioxo-1,2,3,4-tetrahydroquinazolin-6-yl)carbamoyl)piperidin-3-yl)carbamoyl)-1,3-dihydro-2H-isoindole-2-carboxylate]

The next lines start with the compound.

SMILES	inhibition at 1 µM (RORγt [1]) [%]	inhibition at 1 µM (RORγt [2]) [%]	inhibition at 3 µM (RORγt [3]) [%]
CC(C)n1c(=O)n(CC2CC2)c(=O)c2cc(NC(=O)N3CCO[C@@H](C(=O)Nc4cnc(C#N)c(Cl)c4)C3)c(F)cc21 [Example 266, (2R)-N^2-(5-chloro-6-cyanopyridin-3-yl)-N^4-(3-(cyclopropylmethyl)-7-fluoro-1-isopropyl-2,4-dioxo-1,2,3,4-tetrahydroquinazolin-6-yl)morpholine-2,4-dicarboxamide]	102	108	103
CC(C)n1c(=O)n(CC2CC(F)(F)C2)c(=O)c2cc(NC(=O)N3CCO[C@@H](C(=O)Nc4cc(Cl)c(C#N)cc4F)C3)c(F)cc21 [Example 351, (2R)—N^2-(5-chloro-4-cyano-2-fluorophenyl)-N^4-(3-((3,3-difluorocyclobutyl)methyl)-7-fluoro-1-isopropyl-2,4-dioxo-1,2,3,4-tetrahydroquinazolin-6-yl)morpholine-2,4-dicarboxamide]	101	108	106
CC(C)n1c(=O)n(CC2CC2(F)F)c(=O)c2cc(NC(=O)N3CCOC(C(=O)Nc4cc(Cl)c(C#N)cc4F)C3)c(F)cc21 (mixture of isomers) [Example 348, (2R)—N^2-(5-chloro-4-cyano-2-fluorophenyl)-N^4-(3-((2,2-difluorocyclopropyl)methyl)-7-fluoro-1-isopropyl-2,4-dioxo-1,2,3,4-tetrahydroquinazolin-6-yl)morpholine-2,4-dicarboxamide (mixture of two stereoisomers)]	102	107	107
COc1ccc2c(c1)C(=O)N([C@@H]1CCCN(C(=O)Nc3cc4c(=O)n(CC5CC5)c(=O)n(C(C)C)c4cc3F)C1)C2 [Example 303, (3R)—N-(3-(cyclopropylmethyl)-7-fluoro-1-isopropyl-2,4-dioxo-1,2,3,4-tetrahydroquinazolin-6-yl)-3-(6-methoxy-1-oxo-1,3-dihydro-2H-isoindol-2-yl)piperidine-1-carboxamide]	102	107	102
